Activity calls are given as the source filed them.

The target in test [1] is T1, 17-beta-hydroxysteroid dehydrogenase type 1 (Homo sapiens) (UniProt P14061).
T1 sequence (whole entry): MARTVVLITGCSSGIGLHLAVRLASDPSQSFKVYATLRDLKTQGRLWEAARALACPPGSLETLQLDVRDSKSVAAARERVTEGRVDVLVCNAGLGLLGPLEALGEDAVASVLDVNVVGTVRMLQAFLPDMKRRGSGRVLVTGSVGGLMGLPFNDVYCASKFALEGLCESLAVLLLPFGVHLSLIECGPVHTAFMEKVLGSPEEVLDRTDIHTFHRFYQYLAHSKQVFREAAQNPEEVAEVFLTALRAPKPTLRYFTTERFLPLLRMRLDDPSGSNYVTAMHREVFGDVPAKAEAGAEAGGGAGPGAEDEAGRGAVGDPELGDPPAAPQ
The experiment in a line: Inhibition of human recombinant 17-beta-HSD1 expressed in human HeLa cells using estrone as substrate preincubated for 30 mins prior substrate addition measured after 120 mins by spectrophotometry. The class given is cell-based.

The target in test [2] is T2, 17-beta-hydroxysteroid dehydrogenase type 2 (Homo sapiens) (UniProt P37059).
T2 sequence (whole entry): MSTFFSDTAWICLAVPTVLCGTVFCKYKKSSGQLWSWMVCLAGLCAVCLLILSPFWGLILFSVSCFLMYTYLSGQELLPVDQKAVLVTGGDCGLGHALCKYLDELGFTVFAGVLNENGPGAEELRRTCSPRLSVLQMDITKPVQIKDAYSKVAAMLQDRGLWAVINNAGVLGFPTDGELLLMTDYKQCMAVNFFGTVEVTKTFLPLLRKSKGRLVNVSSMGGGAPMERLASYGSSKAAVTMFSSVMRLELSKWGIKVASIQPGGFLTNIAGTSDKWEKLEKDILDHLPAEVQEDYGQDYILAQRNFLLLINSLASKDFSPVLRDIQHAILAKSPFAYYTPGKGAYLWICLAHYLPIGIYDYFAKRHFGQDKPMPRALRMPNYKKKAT
The experiment in a line: Inhibition of human recombinant 17-beta-HSD2 expressed in human HeLa cells using estradiol as substrate preincubated for 30 mins prior substrate addition measured after 120 mins by spectrophotometry. In kind it is cell-based.

Test [3] has as its target T3, Androgen receptor (Homo sapiens) (UniProt P10275).
T3 sequence (whole entry): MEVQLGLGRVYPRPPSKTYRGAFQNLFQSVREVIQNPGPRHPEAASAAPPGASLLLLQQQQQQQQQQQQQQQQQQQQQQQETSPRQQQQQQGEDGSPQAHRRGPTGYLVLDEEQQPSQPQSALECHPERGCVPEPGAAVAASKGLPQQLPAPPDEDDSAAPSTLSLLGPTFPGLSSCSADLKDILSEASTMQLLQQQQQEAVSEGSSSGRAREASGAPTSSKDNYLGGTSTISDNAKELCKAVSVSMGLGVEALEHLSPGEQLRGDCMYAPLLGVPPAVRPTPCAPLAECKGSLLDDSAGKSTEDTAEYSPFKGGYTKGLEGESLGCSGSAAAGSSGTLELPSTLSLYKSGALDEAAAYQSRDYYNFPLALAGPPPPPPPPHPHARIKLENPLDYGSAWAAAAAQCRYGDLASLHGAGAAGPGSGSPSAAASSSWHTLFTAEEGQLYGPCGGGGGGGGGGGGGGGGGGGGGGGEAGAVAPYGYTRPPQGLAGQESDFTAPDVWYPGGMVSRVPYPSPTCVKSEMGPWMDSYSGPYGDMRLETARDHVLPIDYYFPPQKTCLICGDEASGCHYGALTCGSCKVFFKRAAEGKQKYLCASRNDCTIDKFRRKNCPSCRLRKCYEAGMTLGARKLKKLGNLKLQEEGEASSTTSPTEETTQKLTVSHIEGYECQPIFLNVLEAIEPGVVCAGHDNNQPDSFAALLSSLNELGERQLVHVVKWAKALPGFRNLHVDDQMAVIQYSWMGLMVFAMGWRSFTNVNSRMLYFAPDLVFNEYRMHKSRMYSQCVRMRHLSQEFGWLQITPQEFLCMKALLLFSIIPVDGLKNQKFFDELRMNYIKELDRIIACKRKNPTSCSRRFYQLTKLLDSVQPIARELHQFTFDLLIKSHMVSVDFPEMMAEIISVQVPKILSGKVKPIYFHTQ
Kind of test: Agonist activity at human androgen receptor expressed in human HeLa cells assessed as DHT-induced response after 40 hrs by luciferase/beta-galactosidase-based reporter gene assay. In kind it is functional, cell-based.

The target of test [4] is T4, Estrogen receptor (Homo sapiens) (UniProt P03372).
T4 sequence (whole entry): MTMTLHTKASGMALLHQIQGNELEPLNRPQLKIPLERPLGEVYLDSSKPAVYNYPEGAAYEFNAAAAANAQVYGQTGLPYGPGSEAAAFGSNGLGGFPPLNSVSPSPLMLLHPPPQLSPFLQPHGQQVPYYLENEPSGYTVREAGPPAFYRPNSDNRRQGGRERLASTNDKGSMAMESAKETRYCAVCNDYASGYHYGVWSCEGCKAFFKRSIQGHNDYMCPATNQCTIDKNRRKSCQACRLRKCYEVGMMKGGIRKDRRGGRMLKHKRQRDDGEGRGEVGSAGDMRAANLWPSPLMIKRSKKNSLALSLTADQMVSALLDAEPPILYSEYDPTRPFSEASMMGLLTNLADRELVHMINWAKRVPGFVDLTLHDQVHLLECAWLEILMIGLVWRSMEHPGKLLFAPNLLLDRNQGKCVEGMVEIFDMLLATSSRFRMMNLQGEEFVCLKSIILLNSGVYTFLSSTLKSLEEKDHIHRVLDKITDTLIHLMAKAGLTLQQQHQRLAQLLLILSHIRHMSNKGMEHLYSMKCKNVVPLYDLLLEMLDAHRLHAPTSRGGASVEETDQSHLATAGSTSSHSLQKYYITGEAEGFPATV
The experiment in a line: Agonist activity at human Estrogen receptor ERalpha expressed in human HeLa cells assessed as DHT-induced response after 40 hrs by luciferase/beta-galactosidase-based reporter gene assay. In kind it is functional, cell-based. For orientation: Reporter assays use an easily measured gene product as a stand-in for the process of interest.

For test [5], the target named is T5, Glucocorticoid receptor (Homo sapiens) (UniProt P04150).
T5 sequence (whole entry): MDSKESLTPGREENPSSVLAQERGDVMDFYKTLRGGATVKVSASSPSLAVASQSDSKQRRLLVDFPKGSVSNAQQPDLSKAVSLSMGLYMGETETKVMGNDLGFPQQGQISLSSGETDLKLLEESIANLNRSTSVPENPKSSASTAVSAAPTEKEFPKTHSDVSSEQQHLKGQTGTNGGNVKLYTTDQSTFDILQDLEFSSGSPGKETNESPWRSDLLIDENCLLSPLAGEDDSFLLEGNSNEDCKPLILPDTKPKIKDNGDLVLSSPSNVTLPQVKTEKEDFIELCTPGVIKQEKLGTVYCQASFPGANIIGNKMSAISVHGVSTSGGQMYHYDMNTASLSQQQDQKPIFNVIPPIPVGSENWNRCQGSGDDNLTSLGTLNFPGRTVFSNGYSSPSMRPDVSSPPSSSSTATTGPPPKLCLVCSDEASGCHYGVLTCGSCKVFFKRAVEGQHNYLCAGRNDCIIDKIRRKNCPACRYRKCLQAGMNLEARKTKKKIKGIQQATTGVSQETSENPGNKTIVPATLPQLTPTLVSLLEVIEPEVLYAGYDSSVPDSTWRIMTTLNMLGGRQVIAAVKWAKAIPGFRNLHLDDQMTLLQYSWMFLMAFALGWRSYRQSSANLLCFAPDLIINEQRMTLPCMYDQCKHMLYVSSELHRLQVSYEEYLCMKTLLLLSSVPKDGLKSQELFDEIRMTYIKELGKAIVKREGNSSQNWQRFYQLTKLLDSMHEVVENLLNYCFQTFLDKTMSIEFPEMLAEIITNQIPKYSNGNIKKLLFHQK
Kind of test: Agonist activity at human Glucocorticoid receptor expressed in human HeLa cells assessed as DHT-induced response after 40 hrs by luciferase/beta-galactosidase-based reporter gene assay. The class given is functional, cell-based.

In test [6] the target is T3, Androgen receptor (Homo sapiens). The experiment in a line: Antagonist activity at human androgen receptor expressed in human HeLa cells assessed as inhibition of DHT-induced response after 40 hrs by luciferase/beta-galactosidase-based reporter gene assay. The class given is functional, cell-based.
Test [7] concerns the target T4, Estrogen receptor (Homo sapiens). Kind of test: Antagonist activity at human ERalpha receptor expressed in human HeLa cells assessed as inhibition of DHT-induced response after 40 hrs by luciferase/beta-galactosidase-based reporter gene assay. In kind it is functional, cell-based.
Test [8] concerns the target T5, Glucocorticoid receptor (Homo sapiens). The experiment in a line: Antagonist activity at human GR receptor expressed in human HeLa cells assessed as inhibition of DHT-induced response after 40 hrs by luciferase/beta-galactosidase-based reporter gene assay. In kind it is functional, cell-based.
In test [9] the target is T6, 17-beta-hydroxysteroid dehydrogenase type 3 (Homo sapiens, UniProt P37058).
T6 sequence (P37058 whole entry): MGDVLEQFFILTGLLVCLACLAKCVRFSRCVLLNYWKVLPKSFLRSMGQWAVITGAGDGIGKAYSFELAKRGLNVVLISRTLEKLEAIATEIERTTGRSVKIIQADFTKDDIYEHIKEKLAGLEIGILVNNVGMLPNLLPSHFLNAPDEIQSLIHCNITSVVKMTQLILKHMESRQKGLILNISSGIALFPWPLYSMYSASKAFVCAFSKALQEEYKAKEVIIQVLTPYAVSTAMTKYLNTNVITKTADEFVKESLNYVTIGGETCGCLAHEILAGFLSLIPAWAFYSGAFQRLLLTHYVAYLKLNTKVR
The note with it: hela.
Description: (§1) Inhibition of human recombinant 17-beta-HSD3 expressed in human HeLa cells using androstenedione as substrate preincubated for 30 mins prior substrate addition measured after 120 mins by spectrophotometry

Test [10] deals with T6, 17-beta-hydroxysteroid dehydrogenase type 3.
Description: as §1

A word on the IC50: it is the midpoint of a concentration-inhibition curve. Low readings indicate greater potency, high ones weaker potency. For `O=C1NC(=S)S/C1=C\c1ccc(O)c(Br)c1`, the inhibition entry in [1] and in test [2] was “inactive” in each case. The outcome in test [3], in [4], in test [5], in [6], in [7] and in test [8] was inactive. In [9], the IC50 result was “Not Active”.

As to `COc1ccc(N2C(=O)/C(=C(/c3ccc(O)c(Br)c3)C(F)(F)F)SC2=S)cc1`, the inhibition result in [1] and in [2] was “inactive” throughout. In addition, the result in test [3], in [4], in [5], in test [6], in test [7] and in test [8] was inactive. For the same compound, the IC50 entry in test [9] is on record as “Not Active”.

`COc1ccc(N2C(=O)O/C(=C\c3ccc(O)c(C#N)c3)C2=O)cc1`: the inhibition entry in [1] and in test [2] was “inactive” in each case. Also, the result in [3], in test [4], in test [5], in test [6], in test [7] and in test [8] was inactive. In addition, the IC50 entry in test [9] is listed as “Not Active”.

For `COc1ccc(N2C(=O)O/C(=C\c3ccc(O)c(CN(C)C)c3)C2=O)cc1`, the inhibition entry in test [1] and in test [2] was “inactive” throughout. The outcome in [3], in test [4], in test [5], in [6], in [7] and in test [8] was inactive. Moreover, the half-maximal inhibitory concentration (IC50) entry in test [9] is “Not Active”.

As for `O=C1/C(=C/c2ccc(O)c(Br)c2)SC(=S)N1C1CCOCC1`, the inhibition entry in test [1] and in [2] was “inactive” each time. The result in test [3], in [4], in test [5], in [6], in test [7] and in [8] was inactive. Besides, in test [10], the IC50 was 75 nM.

For the compound `O=C(Nc1ccc(N2C(=O)O/C(=C\c3ccc(O)c(Br)c3)C2=O)cc1)C1CCCCC1`, the inhibition result in [1] and in test [2] was “inactive” throughout. For the same compound, the outcome in [3], in [4], in test [5], in test [6], in test [7] and in test [8] was inactive. Besides, half-maximal inhibition in [10] (IC50) was put at 21 nM.

As to `O=C1/C(=C/c2ccc(O)c(Br)c2)OC(=S)N1c1ccc(F)cc1`, the inhibition entry in test [1] and in test [2] was “inactive” throughout. In addition, the outcome in test [3], in test [4], in test [5], in test [6], in test [7] and in test [8] was inactive. Further, the IC50 in test [10] is 2 nM.

For the compound `O=C(c1ccc(N2C(=O)O/C(=C\c3ccc(O)c(Br)c3)C2=O)cc1)N1CCOCC1`, the inhibition result in test [1] and in test [2] was “inactive” each time. Moreover, the result in test [3], in test [4], in test [5], in [6], in test [7] and in test [8] was inactive. Besides, the 50% inhibitory concentration (IC50) in [10] turned out to be 300 nM.

Source of the values: ChEMBL document CHEMBL2016457, “Discovery of potent and orally bioavailable 17β-hydroxysteroid dehydrogenase type 3 inhibitors” (Bioorg Med Chem, 2012).
